Values of other authors, collected in patent US20050020546A1, “Pharmaceutical compositions comprising active vitamin D compounds” (Novacea, Inc., priority 2003, published 2005).

Conditions: compared with calcitriol

Structure (SMILES) | Hypercalcemic effect
C=C1/C(=C\C=C2/CCC[C@]3(C)C([C@H](C)CC#CC(C)(C)O)=CC[C@@H]23)C[C@@H](O)C[C@@H]1O [Ro23-7553] | reduced hypercalcemic effect
C=C1/C(=C/C=C2\CCC[C@]3(C)C([C@H](C)CC#CC(O)(C(F)(F)F)C(F)(F)F)=CC[C@@H]23)C[C@@H](O)C[C@@H]1O [Ro24-5531] | reduced hypercalcemic effect
